Data reported in patent US20120157401A1, “METHODS FOR TREATING NEUROFIBROMATOSIS” (PTC Therapeutics, Inc., priority 2009, published 2012).
pEC50: −log10 of the molar value.

What follows are compounds tested on hypoxia-inducible endogenous VEGF expression (assay: Hypoxia-inducible endogenous VEGF expression ELISA in HeLa cells, dose-response EC50 (Table 3)). Settings: HeLa cells, hypoxic conditions (1% O2), 24-48 hours, VEGF in conditioned media; read-out: ELISA EC50.
Assay type: cell-based, human
Method in brief: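 HeLa cells kept 24-48 h under hypoxia (1% O2, 5% CO2, nitrogen balance) with or without compound, e.g. seven concentrations; secreted VEGF in conditioned medium quantified by ELISA against a standard curve. Parallel Cell Titer Glo viability under identical conditions excludes cytotoxicity.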

SMILES | pEC50
COC(=O)c1ccc(C2c3[nH]c4ccc(Cl)cc4c3CCN2C(=O)Oc2ccc(F)cc2)cc1 (centres unmarked) [Compound 579] | > 8.10
O=C(Oc1ccc(Cl)cc1)N1CCc2c([nH]c3ccc(Cl)cc23)C1c1ccc(S(=O)(=O)N2CCOCC2)cc1 (centres unmarked) [Compound 450] | 7.40 to 8.10
COc1ccc(C2c3[nH]c4ccc(Cl)cc4c3CCN2C(=O)Oc2ccc(F)cc2)cc1 (centres unmarked) [Compound 410] | > 8.10

Same assay, conditions: Homo sapiens, HeLa, read-out: ELISA EC50 μM

SMILES | EC50
O=C(Oc1ccc(Cl)cc1)N1CCc2c([nH]c3ccc(Cl)cc23)[C@@H]1c1ccc(OCCC(O)CN(CCO)CCO)cc1 (some centres unmarked) [Compound 1280] | 0.008 to 0.04 µM
O=C(Oc1ccc(Cl)cc1)N1CCc2c([nH]c3ccc(Cl)cc23)C1c1ccc(OCCCN2CCOCC2)cc1 (centres unmarked) [Compound 894] | < 0.008 µM
O=C(Oc1ccc(Cl)cc1)N1CCc2c([nH]c3ccc(Cl)cc23)[C@@H]1c1ccc(OC[C@H](O)CN2CCOCC2)cc1 [Compound 1070] | < 0.008 µM
COCCCNCCCCOc1ccc(C2c3[nH]c4ccc(Cl)cc4c3CCN2C(=O)Oc2ccc(F)cc2)cc1 (centres unmarked) [Compound 737] | 0.008 to 0.04 µM
O=C(Oc1ccc(Cl)cc1)N1CCc2c([nH]c3ccc(Cl)cc23)C1c1ccc(OCCCN2CCN(CCO)CC2)cc1 (centres unmarked) [Compound 942] | 0.008 to 0.04 µM
CN(C)CCCOc1ccc(C2c3[nH]c4ccc(Cl)cc4c3CCN2C(=O)Oc2ccc(Br)cc2)cc1 (centres unmarked) [Compound 468] | 0.008 to 0.04 µM
CC(C)NCCCCCCOc1ccc(C2c3[nH]c4ccc(Cl)cc4c3CCN2C(=O)Oc2ccc(F)cc2)cc1 (centres unmarked) [Compound 774] | 0.008 to 0.04 µM
CC(=O)N1CCN(CCCOc2ccc(C3c4[nH]c5ccc(Cl)cc5c4CCN3C(=O)Oc3ccc(Cl)cc3)cc2)CC1 (centres unmarked) [Compound 903] | < 0.008 µM
COc1ccc(OC(=O)N2CCc3c([nH]c4ccc(Cl)cc34)C2c2ccc(OCCCN3CCN(C)CC3)cc2)cc1 (centres unmarked) [Compound 1108] | 0.008 to 0.04 µM
COc1ccc(C2c3[nH]c4ccc(Cl)cc4c3CCN2C(=O)Oc2ccc(Cl)cc2)cc1OCCCCN1CCOCC1 (centres unmarked) [Compound 1097] | 0.04 to 0.2 µM
COc1cc(C2c3[nH]c4ccc(Cl)cc4c3CCN2C(=O)Oc2ccc(C)cc2)ccc1OCCCN1CCOCC1 (centres unmarked) [Compound 1132] | 0.008 to 0.04 µM
O=C(Oc1ccc(F)cc1)N1CCc2c([nH]c3ccc(Cl)cc23)C1c1ccc(OCC(O)CN2CCSCC2)cc1 (centres unmarked) [Compound 925] | < 0.008 µM
O=C(Oc1ccc(Cl)cc1)N1CCc2c([nH]c3ccc(Cl)cc23)C1c1ccc(OCCCCCCN2CCCCC2)cc1 (centres unmarked) [Compound 787] | < 0.008 µM
O=C(Oc1ccc(Cl)cc1)N1CCc2c([nH]c3ccc(Cl)cc23)C1c1ccc(OCCCCCCNCCCn2ccnc2)cc1 (centres unmarked) [Compound 789] | 0.04 to 0.2 µM
COCCN(C)CCCOc1ccc(C2c3[nH]c4ccc(Cl)cc4c3CCN2C(=O)Oc2ccc(F)cc2)cc1 (centres unmarked) [Compound 992] | 0.04 to 0.2 µM
O=C(Oc1ccc(Cl)cc1)N1CCc2c([nH]c3ccc(Cl)cc23)[C@@H]1c1ccc(OCCCNCCO)cc1 [Compound 1257] | 0.008 to 0.04 µM
O=C(Oc1ccc(F)cc1)N1CCc2c([nH]c3ccc(Cl)cc23)C1c1cccc(OCCCN2CCOCC2)c1 (centres unmarked) [Compound 1115] | 0.008 to 0.04 µM

Same assay, conditions: Homo sapiens; HeLa cells, hypoxic conditions (1% O2), 24-48 hours, VEGF in conditioned media; read-out: ELISA EC50

SMILES | pEC50
O=C(Oc1ccc([N+](=O)[O-])cc1)N1CCc2c([nH]c3ccc(Cl)cc23)C1c1ccc(OCC(O)CO)cc1 (centres unmarked) [Compound 632] | 7.40 to 8.10
CC1(C)OC[C@H](CCOc2ccc(C3c4[nH]c5ccc(Cl)cc5c4CCN3C(=O)Oc3ccc(F)cc3)cc2)O1 (some centres unmarked) [Compound 1169] | > 8.10
CC1(C)OCC(COc2ccc([C@H]3c4[nH]c5ccc(Cl)cc5c4CCN3C(=O)Oc3ccc(Cl)cc3)cc2)CO1 [Compound 1207] | > 8.10
Cc1ccc2[nH]c3c(c2c1)CCN(C(=O)Oc1ccc(Cl)cc1)C3c1ccc(C(C)C)cc1 (centres unmarked) [Compound 344] | 7.40 to 8.10
O=C(Oc1ccc(F)cc1)N1CCc2c([nH]c3ccc(Cl)cc23)C1c1ccc(OCCNc2nccs2)cc1 (centres unmarked) [#837] | > 8.10
COCCOc1ccc(C2c3[nH]c4ccc(Cl)cc4c3CCN2C(=O)Oc2ccc(F)cc2)cc1 (centres unmarked) [Compound 388] | > 8.10
O=C(Oc1ccc(Cl)cc1)N1CCc2c([nH]c3ccc(Cl)cc23)C1c1ccc(OCCn2ccnn2)cc1 (centres unmarked) [Compound 839] | 7.40 to 8.10
COc1ccc(C2c3[nH]c4ccc(Cl)cc4c3CCN2C(=O)Oc2ccc(Cl)cc2)c(F)c1 (centres unmarked) [Compound 1269] | > 8.10
COc1ccc(OC(=O)N2CCc3c([nH]c4ccc(Cl)cc34)C2c2ccc(OCC3OCCO3)cc2)cc1 (centres unmarked) [Compound 1055] | 7.40 to 8.10
CC(C)c1ccc(C2c3[nH]c4ccc(Cl)cc4c3CCN2C(=O)Oc2ccc(Cl)cc2)cc1 (centres unmarked) [Compound 348] | > 8.10
CS(=O)(=O)NCC(O)COc1ccc(C2c3[nH]c4ccc(Cl)cc4c3CCN2C(=O)Oc2ccc(Cl)cc2)cc1 (centres unmarked) [Compound 849] | 7.40 to 8.10
O=C(Oc1ccc(F)cc1)N1CCc2c([nH]c3ccc(Cl)cc23)C1c1ccc(OCC(O)Cn2ccnc2)cc1 (centres unmarked) [Compound 922] | > 8.10
O=C(Oc1ccc(Cl)cc1)N1CCc2c([nH]c3ccc(Cl)cc23)C1c1ccc(S(=O)(=O)N2CCOCC2)cc1 (centres unmarked) [Compound 346] | 7.40 to 8.10
O=C(Oc1ccc(Br)cc1)N1CCc2c([nH]c3ccc(Cl)cc23)C1c1ccc(OCC2OCCO2)cc1 (centres unmarked) [Compound 1054] | > 8.10
O=C(COc1ccc(C2c3[nH]c4ccc(Cl)cc4c3CCN2C(=O)Oc2ccccc2)cc1)Oc1ccccc1 (centres unmarked) [Compound 366] | < 6.00
COC(=O)c1ccc(C2c3[nH]c4ccc(Br)cc4c3CCN2C(=O)Oc2ccc(F)cc2)cc1 (centres unmarked) [Compound 592] | > 8.10
COc1cc(C2c3[nH]c4ccc(Cl)cc4c3CCN2C(=O)Oc2ccc(C)cc2)ccc1OCCCn1nccn1 (centres unmarked) [Compound 1194] | > 8.10
Cc1ccc(OC(=O)N2CCc3c([nH]c4ccc(Cl)cc34)[C@@H]2c2ccc(OCCC(O)Cn3nccn3)cc2)cc1 (some centres unmarked) [Compound 1290] | > 8.10
O=C(Oc1ccc(Cl)cc1)N1CCc2c([nH]c3ccc(Cl)cc23)[C@@H]1c1ccc(OC[C@H](O)CO)cc1 [Compound 1223] | > 8.10
O=C(Oc1ccc(Cl)cc1)N1CCc2c([nH]c3ccc(Cl)cc23)C1c1ccc(OCCCCCCn2ccnc2)cc1 (centres unmarked) [Compound 790] | > 8.10
COc1ccc(OC(=O)N2CCc3c([nH]c4ccc(Cl)cc34)C2c2ccc(OCC(O)CO)cc2)cc1 (centres unmarked) [Compound 635] | 7.40 to 8.10
COc1ccc(C2c3[nH]c4ccc(Cl)cc4c3CCN2C(=O)Oc2ccc(C)cc2)c(F)c1 (centres unmarked) [Compound 1266] | > 8.10
O=C(Oc1ccccc1)N1CCc2c([nH]c3ccc(Cl)cc23)C1c1ccc(OCCCCl)cc1 (centres unmarked) [Compound 710] | > 8.10
O=C(Oc1ccc(F)cc1)N1CCc2c([nH]c3ccc(Cl)cc23)C1c1ccc(OCC(O)Cn2ccnn2)cc1 (centres unmarked) [Compound 941] | > 8.10
CC(C)C(=O)Nc1ccc(C2c3[nH]c4ccc(Cl)cc4c3CCN2C(=O)Oc2ccc(Cl)cc2)cc1 (centres unmarked) [Compound 482] | 6.70 to 7.40
COCCOCCOc1ccc(C2c3[nH]c4ccc(Cl)cc4c3CCN2C(=O)Oc2ccc([N+](=O)[O-])cc2)cc1 (centres unmarked) [Compound 681] | 7.40 to 8.10
O=C(Oc1ccc(F)cc1)N1CCc2c([nH]c3ccc(Cl)cc23)C1c1ccc(OCCCCCCn2cncn2)cc1 (centres unmarked) [Compound 781] | > 8.10
COc1ccc(C2c3[nH]c4ccc(Cl)cc4c3CCN2C(=O)Oc2ccc(C)cc2)cc1F (centres unmarked) [Compound 1196] | 7.40 to 8.10
O=C(Oc1ccc(F)cc1)N1CCc2c([nH]c3ccc(Cl)cc23)C1c1ccc(OCCn2ccnc2)cc1 (centres unmarked) [Compound 835] | 6.70 to 7.40

Same assay, conditions: Homo sapiens; HeLa cells, hypoxic conditions (1% O2), VEGF ELISA of conditioned media; read-out: ELISA EC50

SMILES | pEC50
O=C(Oc1ccc(Cl)cc1)N1CCc2c([nH]c3ccc(Cl)cc23)[C@@H]1c1ccc(Oc2ncccn2)cc1 [Compound 1570] | > 8.10
N#Cc1cn(CCOc2ccc(C3c4[nH]c5ccc(Cl)cc5c4CCN3C(=O)Oc3ccc(F)cc3)cc2)nc1N (centres unmarked) [Compound 1441] | 7.40 to 8.10
O=C(Oc1ccc(Cl)cc1)N1CCc2c([nH]c3ccc(Cl)cc23)[C@@H]1c1ccc(OC2COC2)cc1 [Compound 1701] | > 8.10
COC(=O)NCC(O)CCOc1ccc([C@H]2c3[nH]c4ccc(Cl)cc4c3CCN2C(=O)Oc2ccc(C)cc2)cc1 (some centres unmarked) [Compound 1642] | > 8.10
CS(=O)(=O)Cc1cnc(Oc2ccc([C@H]3c4[nH]c5ccc(Cl)cc5c4CCN3C(=O)Oc3ccc(Cl)cc3)cc2)s1 [Compound 1702] | > 8.10
COc1ccc(OC(=O)N2CCc3c([nH]c4ccc(Cl)cc34)[C@@H]2c2ccc(OCC(C)(CO)CO)cc2)cc1 [Compound 1337] | 7.40 to 8.10
CC(CO)(CO)COc1ccc(C2c3[nH]c4ccc(Br)cc4c3CCN2C(=O)Oc2ccc(Cl)cc2)cc1 (centres unmarked) [Compound 1353] | > 8.10
COc1ccc(OC(=O)N2CCc3c([nH]c4ccc(Cl)cc34)[C@@H]2c2ccc(OCC[C@@H](O)CO)cc2)cc1 [Compound 1361] | 7.40 to 8.10
O=C(Oc1ccc(Cl)cc1)N1CCc2c([nH]c3ccc(Cl)cc23)C1c1ccc(OC2CCOCC2)cc1 (centres unmarked) [Compound 1578] | > 8.10
O=C(NCC(O)COc1ccc(C2c3[nH]c4ccc(Cl)cc4c3CCN2C(=O)Oc2ccc(Cl)cc2)cc1)c1cccnc1 (centres unmarked) [Compound 1561] | 7.40 to 8.10
COC(=O)NCC(O)CCOc1ccc([C@H]2c3[nH]c4ccc(Cl)cc4c3CCN2C(=O)Oc2ccc(Cl)cc2)cc1 (some centres unmarked) [Compound 1635] | > 8.10
Nc1ccn(CCOc2ccc(C3c4[nH]c5ccc(Cl)cc5c4CCN3C(=O)Oc3ccc(Cl)cc3)cc2)n1 (centres unmarked) [Compound 1417] | > 8.10
[H]/N=c1\sccn1CCOc1ccc(C2c3[nH]c4ccc(Cl)cc4c3CCN2C(=O)Oc2ccc(F)cc2)cc1 (centres unmarked) [Compound 1391] | > 8.10
COCCOC(=O)NCC(O)CCOc1ccc([C@H]2c3[nH]c4ccc(Cl)cc4c3CCN2C(=O)Oc2ccc(Cl)cc2)cc1 (some centres unmarked) [Compound 1637] | > 8.10
CC(C)C(=O)NCC(O)CCOc1ccc([C@H]2c3[nH]c4ccc(Cl)cc4c3CCN2C(=O)Oc2ccc(Cl)cc2)cc1 (some centres unmarked) [Compound 1626] | > 8.10
O=C(Oc1ccc(Cl)cc1)N1CCc2c([nH]c3ccc(Cl)cc23)[C@@H]1c1ccc(Oc2ccc3ccccc3n2)cc1 [Compound 1572] | > 8.10
